Measurements published in patent US10624972B2, “Conjugates for treating diseases” (priority 2015, dated 2020).
Read-outs that look alike come from different tables or passages of the source. *1 amine or outer side, *2 acyl side, *3 side chain or, on linkers, in order; H or OH if unused. Where a SMILES comes first, the peptide text is derived from it. The star is where a group is joined. X1 = COc1ccc(C2=CN(C(=O)c3cc(OC)c(OC)cc3N)[C@H](C3OCCN3C(=O)OCCS*)C2)cc1; X2 = COc1cc(N)c(C(=O)N2c3ccccc3C[C@H]2C2OCCN2C(=O)OCc2ccc(S*)cc2)cc1OC; Pteroyl = Nc1nc2ncc(CNc3ccc(C(=O)*)cc3)nc2c(=O)[nH]1; γGlu = O=C(O)[C@H](CCC(=O)[*:2])N[*:1]

How the values were obtained:
KB cells = assay: cells; assay type: cell-based, Human
Description: METHOD. Inhibition of Cellular DNA Synthesis. The conjugates described herein were evaluated using an in vitro cytotoxicity assay that predicted the ability of the drug to inhibit the growth of the corresponding targeted cells, such as, but not limited to the following
It is to be understood that the choice of cell type can be made on the basis of the susceptibility of those selected cells to the drug that forms the conjugate, and the relative expression of the cell surface receptor or target antigen. The test conjugates were conjugates of a cell surface receptor or target antigen binding compound and PBD prodrugs, poly-PBD prodrugs, and mixed PBDs, as described herein. The test cells were exposed to varying concentrations of the conjugates, and optionally also in the absence or presence of at least a 100-fold excess of the unconjugated cell surface receptor or target antigen binding compound for competition studies to assess activity as being specific to the cell surface receptor or target antigen.
EXAMPLE. Conjugates of PBD prodrugs, poly-PBD prodrugs, and mixed PBDs described herein were active against KB cells. The activity was mediated by the folate receptor as indicated by competition experiments using co-administered folic acid. KB cells were exposed for up to 7 h at 37° C. to the indicated concentrations of folate-drug conjugate in the absence or presence of at least a 100-fold excess of folic acid. The cells were then rinsed once with fresh culture medium and incubated in fresh culture medium for 72 hours at 37° C. Cell viability was assessed using a ^3H-thymidine incorporation assay. For conjugates described herein, dose-dependent cytotoxicity was generally measurable, and in most cases, the IC50 values (concentration of drug conjugate required to reduce ^3H-thymidine incorporation into newly synthesized DNA by 50%) were in the low nanomolar range.

[1] = Toxicity as measured by weight loss (test animal total body weight); assay type: in vivo, mice; conditions: KB tumor study
Description: METHOD. Toxicity as Measured by Weight Loss. The percentage weight change of the test animals was determined on selected days post-tumor inoculation (PTI), and during dosing. The results were graphed.

[2] = Homo sapiens, KB cells, 3H-thymidine incorporation, read-out: IC50 KB Cells
[3] = Homo sapiens, KB cells, co-administered with dithiothreitol (DTT), read-out: IC50 KB Cells

`COc1ccc(C2=CN(C(=O)c3cc(OC)c(OC)cc3N)[C@H](C3OCCN3C(=O)OCCSSc3ccccn3)C2)cc1` (some centres unmarked) [EC1628] showed an IC50 (KB cells; [2]) of 383 nM and an IC50 (KB cells; [3]) of 11 nM.
For `COc1ccc(C2=CN(C(=O)c3cc(OC)c(OC)cc3N)[C@H](C3OCCN3C(=O)OCCSSC[C@H](NC(=O)[C@H](CC(=O)O)NC(=O)[C@H](CC(=O)O)NC(=O)[C@H](CCCNC(=N)N)NC(=O)[C@H](CC(=O)O)NC(=O)CC[C@H](NC(=O)c3ccc(NCc4cnc5nc(N)[nH]c(=O)c5n4)cc3)C(=O)O)C(=O)O)C2)cc1` (some centres unmarked) [EC1629] ({Pteroyl-γGlu}-DRDDC(X1)-OH), the “toxicity as evidenced by test animal total body weight” value (“toxicity as evidenced” below) ([1]; 2 μmol/kg TIW for two weeks) was “Toxicity was not observed”.
For `COc1cc(N)c(C(=O)N2c3ccccc3C[C@H]2C2OCCN2C(=O)OCc2ccc(SSC[C@H](NC(=O)[C@H](CC(=O)O)NC(=O)[C@H](CC(=O)O)NC(=O)[C@H](CCCNC(=N)N)NC(=O)[C@H](CC(=O)O)NC(=O)CC[C@H](NC(=O)c3ccc(NCc4cnc5nc(N)[nH]c(=O)c5n4)cc3)C(=O)O)C(=O)O)cc2)cc1OC` (some centres unmarked) [EC1673] ({Pteroyl-γGlu}-DRDDC(X2)-OH), the IC50 (KB cells) was ≥ 1000 nM.
For `C=C1C[C@@H](C2OCCN2C(=O)OCCSSc2ccccn2)N(C(=O)c2cc(OC)c(OCCCCCOc3cc(N)c(C(=O)N4CC(=C)C[C@H]4C4OCCN4C(=O)OCCSSc4ccccn4)cc3OC)cc2N)C1` (some centres unmarked) [EC1695], the IC50 (KB cells; [2]) was ≥ 100 nM and the IC50 (KB cells; [3]) was 1 nM.
`C=C1C[C@@H](C2OCCN2C(=O)OCc2ccc(SSC[C@H](NC(=O)[C@H](CC(=O)O)NC(=O)[C@H](CC(=O)O)NC(=O)[C@H](CCCNC(=N)N)NC(=O)[C@H](CC(=O)O)NC(=O)CC[C@H](NC(=O)c3ccc(NCc4cnc5nc(N)[nH]c(=O)c5n4)cc3)C(=O)O)C(=O)O)cc2)N(C(=O)c2cc(OC)c(OCCCCCOc3cc(N)c(C(=O)N4CC(=C)C[C@H]4C4OCCN4C(=O)OCc4ccc(SSC[C@H](NC(=O)[C@H](CC(=O)O)NC(=O)[C@H](CC(=O)O)NC(=O)[C@H](CCCNC(=N)N)NC(=O)[C@H](CC(=O)O)NC(=O)CC[C@H](NC(=O)c5ccc(NCc6cnc7nc(N)[nH]c(=O)c7n6)cc5)C(=O)O)C(=O)O)cc4)cc3OC)cc2N)C1` (some centres unmarked) [EC1704] gave an IC50 (KB cells; 3 h) of 0.46 nM.
Work on `C=C1C[C@H]2C(=O)Nc3cc(OCCCCCOc4cc(N)c(C(=O)N5CC(=C)C[C@H]5C5OCCN5C(=O)OCCCSC[C@H](NC(=O)[C@H](CC(=O)O)NC(=O)[C@H](CC(=O)O)NC(=O)[C@H](CCCNC(=N)N)NC(=O)[C@H](CC(=O)O)NC(=O)CC[C@H](NC(=O)c5ccc(NCc6cnc7nc(N)[nH]c(=O)c7n6)cc5)C(=O)O)C(=O)O)cc4OC)c(OC)cc3C(=O)N2C1` (some centres unmarked) [EC1772] yielded an IC50 (KB cells; 3 h) of 0.33 nM.
For `C=C1C[C@H]2C=Nc3cc(OCCCCCOc4cc(N)c(C(=O)N5CC(=C)C[C@H]5C5OCCN5C(=O)OCCSSC[C@H](NC(=O)[C@H](CC(=O)O)NC(=O)[C@H](CC(=O)O)NC(=O)[C@H](CCCNC(=N)N)NC(=O)[C@H](CC(=O)O)NC(=O)CC[C@H](NC(=O)c5ccc(NCc6cnc7nc(N)[nH]c(=O)c7n6)cc5)C(=O)O)C(=O)O)cc4OC)c(OC)cc3C(=O)N2C1` (some centres unmarked) [EC1788], the “toxicity as evidenced” value ([1]; 0.2 μmol/kg TIW for two weeks) was “Minor toxicity was observed”, the “toxicity as evidenced” value ([1]; 0.4 μmol/kg BIW for 2 weeks) was “Minor toxicity was observed” and the IC50 (KB cells; KB cells, 3H-thymidine incorporation, read-out: IC50 KB Cells) was 0.18 nM.
In the case of `C=C1C[C@@H](C2OCCN2C(=O)OCCSSC[C@@H](NC(=O)[C@H](CCC(=O)NC[C@H](O)[C@@H](O)[C@H](O)[C@H](O)CO)NC(=O)[C@@H](CCC(=O)O)NC(=O)[C@H](CCC(=O)NC[C@H](O)[C@@H](O)[C@H](O)[C@H](O)CO)NC(=O)[C@@H](CCC(=O)O)NC(=O)[C@H](CCC(=O)NC[C@H](O)[C@@H](O)[C@H](O)[C@H](O)CO)NC(=O)CC[C@H](NC(=O)c2ccc(NCc3cnc4nc(N)[nH]c(=O)c4n3)cc2)C(=O)O)C(=O)O)N(C(=O)c2cc(OC)c(OCCCCCOc3ccc(-c4nc5ccc(-c6nc7cc(N8CCN(C)CC8)ccc7[nH]6)cc5[nH]4)cc3)cc2N)C1` (some centres unmarked) [EC1879], the “toxicity as evidenced” value ([1]; 2 μmol/kg TIW for 1 week) is reported as “Minor toxicity was observed”, the “toxicity as evidenced” value ([1]; 2 μmol/kg TIW for two weeks) is reported as “Toxicity was not observed” and the IC50 (KB cells; 3 h) is reported as 0.56 nM.
Compound `C=C1C[C@@H](C2OCCN2C(=O)OCc2ccc(NC(=O)[C@H](C)NC(=O)[C@@H](NC(=O)CCCCCN3C(=O)CC(SC[C@@H](NC(=O)[C@H](CCC(=O)NC[C@H](O)[C@@H](O)[C@H](O)[C@H](O)CO)NC(=O)[C@@H](CCC(=O)O)NC(=O)[C@H](CCC(=O)NC[C@H](O)[C@@H](O)[C@H](O)[C@H](O)CO)NC(=O)[C@@H](CCC(=O)O)NC(=O)[C@H](CCC(=O)NC[C@H](O)[C@@H](O)[C@H](O)[C@H](O)CO)NC(=O)CC[C@H](NC(=O)c4ccc(NCc5cnc6nc(N)[nH]c(=O)c6n5)cc4)C(=O)O)C(=O)O)C3=O)C(C)C)cc2)N(C(=O)c2cc(OC)c(OCCCCCOc3cc(N)c(C(=O)N4CC(=C)C[C@H]4C4OCCN4C(=O)OCC4c5ccccc5-c5ccccc54)cc3OC)cc2N)C1` (some centres unmarked) [EC1911] has an IC50 (KB cells; 3 h) of 0.7 nM.
For `C=C1C[C@@H](C2OCCN2C(=O)OCCSSC[C@@H](NC(=O)[C@H](CCC(=O)NC[C@H](O)[C@@H](O)[C@H](O)[C@H](O)CO)NC(=O)[C@@H](CCC(=O)O)NC(=O)[C@H](CCC(=O)NC[C@H](O)[C@@H](O)[C@H](O)[C@H](O)CO)NC(=O)[C@@H](CCC(=O)O)NC(=O)[C@H](CCC(=O)NC[C@H](O)[C@@H](O)[C@H](O)[C@H](O)CO)NC(=O)CC[C@H](NC(=O)c2ccc(NCc3cnc4nc(N)[nH]c(=O)c4n3)cc2)C(=O)O)C(=O)O)N(C(=O)c2cc(OC)c(OCCCCCOc3cc(N)c(C(=O)N4CC(=C)C[C@H]4C4OCCN4C(=O)OCCSSc4ccccn4)cc3OC)cc2N)C1` (some centres unmarked) [EC1949], the IC50 (KB cells; 3 h) was 1.49 nM.
Work on `C=C1C[C@H]2C(=O)Nc3cc(OCCCCCOc4cc(N)c(C(=O)N5CC(=C)C[C@H]5C5OCCN5C(=O)OCc5ccc(NC(=O)[C@H](C)NC(=O)[C@@H](NC(=O)CCOCCOCCOCCOCCNC(=O)CCN6C(=O)CC(SC[C@@H](NC(=O)[C@H](CCC(=O)NC[C@H](O)[C@@H](O)[C@H](O)[C@H](O)CO)NC(=O)[C@@H](CCC(=O)O)NC(=O)[C@H](CCC(=O)NC[C@H](O)[C@@H](O)[C@H](O)[C@H](O)CO)NC(=O)[C@@H](CCC(=O)O)NC(=O)[C@H](CCC(=O)NC[C@H](O)[C@@H](O)[C@H](O)[C@H](O)CO)NC(=O)CC[C@H](NC(=O)c7ccc(NCc8cnc9nc(N)[nH]c(=O)c9n8)cc7)C(=O)O)C(=O)O)C6=O)C(C)C)cc5)cc4OC)c(OC)cc3C(=O)N2C1` (some centres unmarked) [EC2074] yielded an IC50 (KB cells; 3 h) of 3.6 nM.
`C=C1C[C@@H](C2OCCN2C(=O)OCc2ccc(NC(=O)[C@H](C)NC(=O)[C@@H](NC(=O)CCOCCOCCOCCOCCNC(=O)CCN3C(=O)CC(SC[C@@H](NC(=O)[C@H](CCC(=O)NC[C@H](O)[C@@H](O)[C@H](O)[C@H](O)CO)NC(=O)[C@@H](CCC(=O)O)NC(=O)[C@H](CCC(=O)NC[C@H](O)[C@@H](O)[C@H](O)[C@H](O)CO)NC(=O)[C@@H](CCC(=O)O)NC(=O)[C@H](CCC(=O)NC[C@H](O)[C@@H](O)[C@H](O)[C@H](O)CO)NC(=O)CC[C@H](NC(=O)c4ccc(NCc5cnc6nc(N)[nH]c(=O)c6n5)cc4)C(=O)O)C(=O)O)C3=O)C(C)C)cc2)N(C(=O)c2cc(OC)c(OCCCCCOc3ccc(-c4nc5ccc(-c6nc7cc(N8CCN(C)CC8)ccc7[nH]6)cc5[nH]4)cc3)cc2N)C1` (some centres unmarked) [EC2080] gave an IC50 (KB cells; 3 h) of 0.2 nM.
With `C=C1C[C@@H](C2OCCN2C(=O)OCC2c3ccccc3-c3ccccc32)N(C(=O)c2cc(OC)c(OCCCCCOc3cc(NC(=O)OCc4ccc(NC(=O)[C@H](C)NC(=O)[C@@H](NC(=O)CCOCCOCCOCCOCCNC(=O)CCN5C(=O)CC(SC[C@@H](NC(=O)[C@H](CCC(=O)NC[C@H](O)[C@@H](O)[C@H](O)[C@H](O)CO)NC(=O)[C@@H](CCC(=O)O)NC(=O)[C@H](CCC(=O)NC[C@H](O)[C@@H](O)[C@H](O)[C@H](O)CO)NC(=O)[C@@H](CCC(=O)O)NC(=O)[C@H](CCC(=O)NC[C@H](O)[C@@H](O)[C@H](O)[C@H](O)CO)NC(=O)CC[C@H](NC(=O)c6ccc(NCc7cnc8nc(N)[nH]c(=O)c8n7)cc6)C(=O)O)C(=O)O)C5=O)C(C)C)cc4)c(C(=O)N4CC(=C)C[C@H]4C4OCCN4C(=O)OCC4c5ccccc5-c5ccccc54)cc3OC)cc2N)C1` (some centres unmarked) [EC2103] the IC50 (KB cells; 3 h) was 3.5 nM.
`C=C1C[C@@H](C2OCCN2C(=O)OCc2ccc(NC(=O)[C@H](C)NC(=O)[C@@H](NC(=O)CCOCCOCCOCCOCCNC(=O)CCN3C(=O)CC(SC[C@@H](NC(=O)[C@H](CCC(=O)NC[C@H](O)[C@@H](O)[C@H](O)[C@H](O)CO)NC(=O)[C@@H](CCC(=O)O)NC(=O)[C@H](CCC(=O)NC[C@H](O)[C@@H](O)[C@H](O)[C@H](O)CO)NC(=O)[C@@H](CCC(=O)O)NC(=O)[C@H](CCC(=O)NC[C@H](O)[C@@H](O)[C@H](O)[C@H](O)CO)NC(=O)CC[C@H](NC(=O)c4ccc(NCc5cnc6nc(N)[nH]c(=O)c6n5)cc4)C(=O)O)C(=O)O)C3=O)C(C)C)cc2)N(C(=O)c2cc(OC)c(OCCCCCOc3cc(N)c(C(=O)N4CC(=C)C[C@H]4C4OCCN4C(=O)OCc4ccc([N+](=O)[O-])cc4)cc3OC)cc2N)C1` (some centres unmarked) [EC2127] showed an IC50 (KB cells; 3 h) of 1.34 nM.
